Measurements from the NIST ThermoML archive (doi:10.1021/je060271a).
± gives the expanded uncertainty stated by the source.

Details: 283.16 K, Liquid, Vibrating tube method

In the case of `CCCC(=O)OCC(COC(=O)CCC)(COC(=O)CCC)COC(=O)CCC` [pentaerythritol tetrabutyrate], the mass density (5025.9 kPa) is reported as 1062 ± 1.3 kg/m3, the mass density (5026.2 kPa) is reported as 1062.1 ± 1.3 kg/m3 and the mass density (5026.4 kPa) is reported as 1061.9 ± 1.3 kg/m3. The mass density (5026.6 kPa) was 1061.9 ± 1.3 kg/m3, the mass density (5037.7 kPa) was 1062 ± 1.3 kg/m3 and the mass density (5052.7 kPa) was 1062 ± 1.3 kg/m3. The mass density (5084.5 kPa) was 1061.9 ± 1.3 kg/m3, the mass density (5099.4 kPa) was 1062.1 ± 1.3 kg/m3 and the mass density (5117.2 kPa) was 1062.1 ± 1.3 kg/m3. For the same molecule, the mass density (5132.1 kPa) was 1062.1 ± 1.3 kg/m3, the mass density (5146.8 kPa) was 1062.1 ± 1.3 kg/m3 and the mass density (5164.5 kPa) was 1062.1 ± 1.3 kg/m3. It also gave a mass density (5180.2 kPa) of 1062 ± 1.3 kg/m3, a mass density (5195.4 kPa) of 1062.1 ± 1.3 kg/m3 and a mass density (5213.6 kPa) of 1062.2 ± 1.3 kg/m3. It also gave a mass density (5229.7 kPa) of 1062.1 ± 1.3 kg/m3, a mass density (5245.8 kPa) of 1062.1 ± 1.3 kg/m3 and a mass density (5261.4 kPa) of 1062.2 ± 1.3 kg/m3. For the same molecule, the mass density (5277.3 kPa) was 1062.1 ± 1.3 kg/m3, the mass density (5296.5 kPa) was 1062.2 ± 1.3 kg/m3 and the mass density (5312.6 kPa) was 1062.2 ± 1.3 kg/m3. For the same molecule, the mass density (5328.5 kPa) was 1062.1 ± 1.3 kg/m3, the mass density (5347.8 kPa) was 1062.1 ± 1.3 kg/m3 and the mass density (5364.8 kPa) was 1062.2 ± 1.3 kg/m3. The mass density (5381.7 kPa) was 1062.1 ± 1.3 kg/m3, the mass density (5398.7 kPa) was 1062.3 ± 1.3 kg/m3 and the mass density (5419.8 kPa) was 1062.2 ± 1.3 kg/m3. It also gave a mass density (5436.6 kPa) of 1062.3 ± 1.3 kg/m3, a mass density (5450.9 kPa) of 1062.3 ± 1.3 kg/m3 and a mass density (5465.9 kPa) of 1062.2 ± 1.3 kg/m3. It also gave a mass density (5510.3 kPa) of 1062.3 ± 1.3 kg/m3, a mass density (5516.6 kPa) of 1062.3 ± 1.3 kg/m3 and a mass density (5521.7 kPa) of 1062.3 ± 1.3 kg/m3. It also gave a mass density (5526.9 kPa) of 1062.3 ± 1.3 kg/m3, a mass density (5532.8 kPa) of 1062.3 ± 1.3 kg/m3 and a mass density (5538.2 kPa) of 1062.2 ± 1.3 kg/m3. It also gave a mass density (5543.2 kPa) of 1062.3 ± 1.3 kg/m3, a mass density (5548.7 kPa) of 1062.2 ± 1.3 kg/m3 and a mass density (5553.9 kPa) of 1062.3 ± 1.3 kg/m3. The mass density (5560.3 kPa) was 1062.2 ± 1.3 kg/m3, the mass density (5565.4 kPa) was 1062.2 ± 1.3 kg/m3 and the mass density (5570.9 kPa) was 1062.4 ± 1.3 kg/m3. For the same molecule, the mass density (5577.1 kPa) was 1062.3 ± 1.3 kg/m3, the mass density (5582.3 kPa) was 1062.3 ± 1.3 kg/m3 and the mass density (5587.5 kPa) was 1062.3 ± 1.3 kg/m3. The mass density (5592.9 kPa) was 1062.4 ± 1.3 kg/m3, the mass density (5599.3 kPa) was 1062.2 ± 1.3 kg/m3 and the mass density (5604.6 kPa) was 1062.4 ± 1.3 kg/m3. For the same molecule, the mass density (5610 kPa) was 1062.4 ± 1.3 kg/m3, the mass density (5616.4 kPa) was 1062.4 ± 1.3 kg/m3 and the mass density (5621.6 kPa) was 1062.3 ± 1.3 kg/m3. The mass density (5627.3 kPa) was 1062.3 ± 1.3 kg/m3, the mass density (5632.6 kPa) was 1062.3 ± 1.3 kg/m3 and the mass density (5639.2 kPa) was 1062.3 ± 1.3 kg/m3. The mass density (5644.4 kPa) was 1062.3 ± 1.3 kg/m3, the mass density (5649.9 kPa) was 1062.3 ± 1.3 kg/m3 and the mass density (5655.3 kPa) was 1062.3 ± 1.3 kg/m3. It also gave a mass density (5661.7 kPa) of 1062.4 ± 1.3 kg/m3, a mass density (5667.2 kPa) of 1062.2 ± 1.3 kg/m3 and a mass density (5674 kPa) of 1062.4 ± 1.3 kg/m3. It also gave a mass density (5679.3 kPa) of 1062.4 ± 1.3 kg/m3, a mass density (5684.7 kPa) of 1062.3 ± 1.3 kg/m3 and a mass density (5690 kPa) of 1062.3 ± 1.3 kg/m3. The mass density (5696.8 kPa) was 1062.3 ± 1.3 kg/m3, the mass density (5702.1 kPa) was 1062.4 ± 1.3 kg/m3 and the mass density (5707.9 kPa) was 1062.3 ± 1.3 kg/m3. For the same molecule, the mass density (5713.6 kPa) was 1062.5 ± 1.3 kg/m3, the mass density (5720.3 kPa) was 1062.4 ± 1.3 kg/m3 and the mass density (5725.5 kPa) was 1062.5 ± 1.3 kg/m3. It also gave a mass density (5731.2 kPa) of 1062.4 ± 1.3 kg/m3, a mass density (5736.6 kPa) of 1062.5 ± 1.3 kg/m3 and a mass density (5743.3 kPa) of 1062.3 ± 1.3 kg/m3. For the same molecule, the mass density (5749 kPa) was 1062.4 ± 1.3 kg/m3, the mass density (5754.4 kPa) was 1062.4 ± 1.3 kg/m3 and the mass density (5761.1 kPa) was 1062.4 ± 1.3 kg/m3. The mass density (5766.6 kPa) was 1062.4 ± 1.3 kg/m3, the mass density (5773.7 kPa) was 1062.5 ± 1.3 kg/m3 and the mass density (5779.1 kPa) was 1062.4 ± 1.3 kg/m3. It also gave a mass density (5803.1 kPa) of 1062.5 ± 1.3 kg/m3, a mass density (5808.7 kPa) of 1062.4 ± 1.3 kg/m3 and a mass density (5814.4 kPa) of 1062.5 ± 1.3 kg/m3. The mass density (5821.5 kPa) was 1062.5 ± 1.3 kg/m3, the mass density (5827.2 kPa) was 1062.4 ± 1.3 kg/m3 and the mass density (5833 kPa) was 1062.4 ± 1.3 kg/m3. For the same molecule, the mass density (5839.6 kPa) was 1062.5 ± 1.3 kg/m3, the mass density (5845.5 kPa) was 1062.5 ± 1.3 kg/m3 and the mass density (5851.5 kPa) was 1062.4 ± 1.3 kg/m3. The mass density (5857.2 kPa) was 1062.5 ± 1.3 kg/m3, the mass density (5864.2 kPa) was 1062.5 ± 1.3 kg/m3 and the mass density (5869.9 kPa) was 1062.5 ± 1.3 kg/m3. The mass density (5876.8 kPa) was 1062.5 ± 1.3 kg/m3, the mass density (5882.3 kPa) was 1062.4 ± 1.3 kg/m3 and the mass density (5888.4 kPa) was 1062.6 ± 1.3 kg/m3. It also gave a mass density (5894.6 kPa) of 1062.4 ± 1.3 kg/m3, a mass density (5901.3 kPa) of 1062.5 ± 1.3 kg/m3 and a mass density (5907.2 kPa) of 1062.5 ± 1.3 kg/m3. It also gave a mass density (5913.3 kPa) of 1062.5 ± 1.3 kg/m3, a mass density (5919.5 kPa) of 1062.5 ± 1.3 kg/m3 and a mass density (5926.4 kPa) of 1062.5 ± 1.3 kg/m3. It also gave a mass density (5932.3 kPa) of 1062.6 ± 1.3 kg/m3, a mass density (5938.5 kPa) of 1062.6 ± 1.3 kg/m3 and a mass density (5944.6 kPa) of 1062.5 ± 1.3 kg/m3. The mass density (5951.6 kPa) was 1062.5 ± 1.3 kg/m3, the mass density (5957.7 kPa) was 1062.5 ± 1.3 kg/m3 and the mass density (5963.8 kPa) was 1062.5 ± 1.3 kg/m3. For the same molecule, the mass density (5971 kPa) was 1062.5 ± 1.3 kg/m3, the mass density (5977.1 kPa) was 1062.7 ± 1.3 kg/m3 and the mass density (5983.3 kPa) was 1062.6 ± 1.3 kg/m3. For the same molecule, the mass density (5989.3 kPa) was 1062.6 ± 1.3 kg/m3, the mass density (5996.6 kPa) was 1062.6 ± 1.3 kg/m3 and the mass density (6002.8 kPa) was 1062.6 ± 1.3 kg/m3. It also gave a mass density (6009.4 kPa) of 1062.5 ± 1.3 kg/m3, a mass density (6016.2 kPa) of 1062.6 ± 1.3 kg/m3 and a mass density (6022.5 kPa) of 1062.7 ± 1.3 kg/m3. It also gave a mass density (6029.9 kPa) of 1062.5 ± 1.3 kg/m3, a mass density (6036 kPa) of 1062.6 ± 1.3 kg/m3 and a mass density (6042.3 kPa) of 1062.6 ± 1.3 kg/m3. It also gave a mass density (6048.4 kPa) of 1062.6 ± 1.3 kg/m3, a mass density (6056 kPa) of 1062.7 ± 1.3 kg/m3 and a mass density (6062 kPa) of 1062.6 ± 1.3 kg/m3. For the same molecule, the mass density (6068.3 kPa) was 1062.6 ± 1.3 kg/m3, the mass density (6075.9 kPa) was 1062.6 ± 1.3 kg/m3 and the mass density (6082.1 kPa) was 1062.6 ± 1.3 kg/m3. The mass density (6088.5 kPa) was 1062.6 ± 1.3 kg/m3, the mass density (6095.2 kPa) was 1062.7 ± 1.3 kg/m3 and the mass density (6100.5 kPa) was 1062.6 ± 1.3 kg/m3. For the same molecule, the mass density (6106.9 kPa) was 1062.6 ± 1.3 kg/m3, the mass density (6114.5 kPa) was 1062.7 ± 1.3 kg/m3 and the mass density (6120.9 kPa) was 1062.6 ± 1.3 kg/m3. For the same molecule, the mass density (6127.1 kPa) was 1062.6 ± 1.3 kg/m3, the mass density (6134.7 kPa) was 1062.6 ± 1.3 kg/m3 and the mass density (6140.7 kPa) was 1062.6 ± 1.3 kg/m3. The mass density (6147.1 kPa) was 1062.7 ± 1.3 kg/m3, the mass density (6153.9 kPa) was 1062.7 ± 1.3 kg/m3 and the mass density (6161.5 kPa) was 1062.6 ± 1.3 kg/m3. For the same molecule, the mass density (6167.9 kPa) was 1062.6 ± 1.3 kg/m3, the mass density (6174.6 kPa) was 1062.7 ± 1.3 kg/m3 and the mass density (6182.6 kPa) was 1062.6 ± 1.3 kg/m3. The mass density (6188.8 kPa) was 1062.7 ± 1.3 kg/m3, the mass density (6195.4 kPa) was 1062.8 ± 1.3 kg/m3 and the mass density (6202.1 kPa) was 1062.6 ± 1.3 kg/m3. It also gave a mass density (6210.1 kPa) of 1062.8 ± 1.3 kg/m3, a mass density (6216.6 kPa) of 1062.6 ± 1.3 kg/m3 and a mass density (6223.4 kPa) of 1062.6 ± 1.3 kg/m3. It also gave a mass density (6229.9 kPa) of 1062.6 ± 1.3 kg/m3 and a mass density (6237.5 kPa) of 1062.7 ± 1.3 kg/m3.
